Key:
Type in all cases: cell-based
[1] = test system: human dermal fibroblasts; HDFs; experiment: Alizarin Red S staining and absorbance, compound panel, Examples 29-30; settings: calcification induction medium; compounds 2 μM (Pifthrin-α 5 μM, DZnep 50 nM); day 28; FIG. 33, 34
Experimental: The compounds added to the medium and the concentrations thereof are as follows. • I-BET151: 2 μM • Pifthrin-α: 5 μM • PD0325901: 2 μM • 2-Me-5HT: 2 μM • CX4945: 2 μM • CHIR99021: 2 μM • Forskolin: 2 μM • DZnep: 50 nM • D4476: 2 μM • SB431542: 2 μM • ALK5 i II: 2 μM.
In the experiment of Example 29, the solution after staining with the Alizarin Red S staining solution was collected in a 96 well plate and the absorbance (OD 550 nm) was measured with an absorption spectrometer.

[2] = test system: Human normal skin-derived fibroblasts (HDFs); experiment: Real-time RT-PCR of ALP, Osteocalcin, Bonesialoprotein, Example 35; settings: day 18, FIG. 39
Experimental: The concentrations of the small molecule compound or cytokine added are as follows. • ALK5 i II: 4 μM • 1α,25-dihydroxy Vitamin D3 (VD3): 5 nM • Human insulin-like growth factor-1 (IGF-1): 100 ng/ml.

[3] = test system: human dermal fibroblasts; HDFs; experiment: Real-time RT-PCR of AdipoQ, Example 14; settings: D4476, SB431542, ALK5 Inhibitor II 2 μM, PD0325901 1 μM, in addition to T3 and Rosiglitazone; day 14; FIG. 14
Experimental: The concentrations of the additives are as follows: • T3: 1 nM • Rosiglitazone: 1 μM • D4476: 2 μM. • Pifithrin alpha [p53 inhibitor]: 5 μM • PD0325901: 1 μM • SB431542: 2 μM • ALK5 Inhibitor II: 2 μM.

[4] = test system: human dermal fibroblasts; HDFs; experiment: Real-time RT-PCR of CIDEA, Example 13; settings: compound 2 μM in addition to T3 1 nM and Rosiglitazone 1 μM, adipocyte induction medium; day 14; FIG. 13
Experimental: (§1) The concentrations of the additives are as follows: • T3: 1 nM • Rosiglitazone: 1 μM • D4476: 2 μM • Pifithrin alpha [p53 inhibitor]: 5 μM • SB431542: 2 μM • ALK5 Inhibitor II: 2 μM.

[5] = test system: human dermal fibroblasts; HDFs; experiment: Alizarin Red S staining (staining figure), fibroblast to osteoblast, Example 1; settings: each compound 2 μM in calcification induction medium; day 24; FIG. 1
Experimental: It was washed 3 times with sterile distilled water. […] The well after staining was washed with sterile distilled water and photographed.
The concentrations of the compounds are as follows: • D4476: 2 μM • ALK5 inhibitor II: 2 μM • SB431542: 2 μM.

[6] = test system: Human normal skin-derived fibroblasts (HDFs); experiment: Immunostaining of UCP1, four inhibitors, Example 40; settings: LY2157299 8 μM, SB431542 4 μM, D4476 4 μM, Day 1 to Day 8, day 14, FIG. 44; for conversion of fibroblast to brown adipocyte, UCP1 protein: ALK5 inhibitor II 4 μM; for staining with anti-UCP1 antibody: groups 3-6: ALK5 inhibitor II 4 μM
Experimental: Human normal skin-derived fibroblasts (HDFs) were suspended in a general medium (DMEM added with 10% FBS). […] The adipocyte induction medium is DMEM added with 1 nM T3, 1 μM Rosiglitazone, 0.5 mM 3-isobutyl-1-methylxanthine (IBMX), 0.5 μM dexamethasone, 1 μg/mL Insulin and 10% FBS. Once every 2 days, the culture medium was exchanged with a fresh one, and culturing was performed from Day 1 to Day 8. Thereafter, from Day 9 to Day 14, the cells were cultured in an adipocyte induction medium free of ALK5 inhibitor II, LY2157299, SB431542, D4476. On day 14, the culture medium was removed by suction from each well, and washed with PBS(−). After fixing with 4% para-formaldehyde, the well was washed with PBS (−), Permanent wave Buffer (0.2% Triton-X addition PBS) was added and the well was incubated for 15 min. After washing 3 times with PBS(−), Blocking One was added, and the mixture was incubated at room temperature for 60 min. Anti-UCP-1 antibody (RD MAB6158) was added and the mixture was reacted for 2 hrs at room temperature, and washed 3 times with Wash buffer. CF488-conjugated anti-mouse Ig antibody (Biotum 20014) was added and the mixture was reacted for 2 hrs at room temperature, and washed 3 times with PBS(−). After nuclear staining with SlowFade Gold antifade reagent with DAPI manufactured by Lifetechnology, the cells were photographed with a fluorescence microscope at ×100 magnification.

[7] = test system: human dermal fibroblasts; HDFs; experiment: Bodipy staining in WA medium, four inhibitors, Example 48; settings: day 12, FIG. 52; for lipid droplets stained with Bodipy, inhibitor alone: WA medium added with 16 μM compound alone; for lipid droplets stained with Bodipy / conversion to white adipocyte, inhibitor and Rosiglitazone: WA medium added with 16 μM compound and 1 μM Rosiglitazone
[8] = test system: human dermal fibroblasts; HDFs; experiment: Oil Red O staining, fibroblast to brown adipocyte, Example 12; settings: compound 2 μM in addition to T3 1 nM and Rosiglitazone 1 μM, adipocyte induction medium; day 14; FIG. 12
Experimental: as §1
Then, the cells were washed with sterile distilled water and photographed with a phase contrast microscope at ×100 magnification.

[9] = test system: human dermal fibroblasts; HDFs; experiment: BODIPY staining and fluorescence intensity, Example 15; settings: compound 2 μM in addition to T3 1 nM and Rosiglitazone 1 μM; day 14; FIG. 15A, 15B
Experimental: The concentrations of the additives are as follows: • T3: 1 nM • Rosiglitazone: 1 μM • D4476: 2 μM • SB431541: 2 μM • ALK5 inhibitor II: 2 μM.
The cells were fixed with 4% para-formaldehyde, washed with PBS(−), reacted for 5 min with BODIPY 493/503 (Invitrogen)/PBS solution at room temperature and washed 3 times with PBS. The cells were photographed with a fluorescence microscope at ×200 magnification and the fluorescence intensity was measured.

[10] = test system: human dermal fibroblasts; HDFs; experiment: Bodipy staining quantification in WA medium, four inhibitors, Example 49; settings: 16 μM compound and 1 μM Rosiglitazone, day 12, FIG. 53
[11] = test system: Human normal skin-derived fibroblasts (HDFs); experiment: Alizarin Red S and ALP staining, absorbance, TGF-β pathway inhibitor panel, Examples 31-32; settings: for efficiency in converting fibroblast to osteoblast (summary statement): description, conditions not given
Experimental: On day 21, the culture medium was removed from a part of the well, washed with PBS(-), and fixed with a fixative. It was washed 3 times with sterile distilled water. […] In the experiment of Example 31, the solution after staining with the Alizarin Red S staining solution was collected in a 96 well plate and the absorbance (OD 550 nm) was measured with an absorption spectrometer.

[12] = test system: Human normal skin-derived fibroblasts (HDFs); experiment: Real-time RT-PCR of UCP1, four inhibitors, Example 39; settings: 4 μM, 8 μM, 12 μM or 16 μM in adipocyte induction medium Day 1 to Day 8, then compound-free to day 14; FIG. 43
Experimental: The addition concentration of the compound was 4 μM, 8 μM, 12 μM or 16 μM. […] Thereafter, in Day 9-Day 14, culturing was performed in a medium free of ALK5 inhibitor II, LY2157299, SB431542, D4476.

[13] = test system: human dermal fibroblasts; HDFs; experiment: Alizarin Red S staining (absorbance OD 550 nm), Example 2; settings: each compound 2 μM in calcification induction medium; day 24; FIG. 2
Experimental: (§2) The concentrations of the compounds are as follows: • D4476: 2 μM • SB431542: 2 μM • ALK5 inhibitor II: 2 μM.

[14] = test system: human dermal fibroblasts; HDFs; experiment: Real-time PCR of AdipoQ, FABP4, PPAR-γ, four inhibitors with Rosiglitazone, Example 50; settings: WA medium added with 1 μM Rosiglitazone and 16 μM compound; day 12
Source text: On day 12, RNA was recovered from the cells and, in the same manner as in Example 47, mRNA of AdipoQ, FABP4 (mature adipocyte marker), and PPAR-γ (preadipocyte marker) was quantified.

[15] = test system: human dermal fibroblasts; HDFs; experiment: Real-time RT-PCR of Osteocalcin and Alkaline Phosphatase, Example 3; settings: each compound 2 μM in calcification induction medium; day 24; FIG. 3
Experimental: as §2

COc1cc2c(cc1-c1c(C)noc1C)ncc1[nH]c(=O)n([C@H](C)c3ccccn3)c12 [I-BET]
conversion from fibroblast to osteoblast, Alizarin Red S staining and absorbance [1]: do not induce conversion from fibroblast to osteoblast

Cc1ccc(C(=O)Cn2c3c(sc2=N)CCCC3)cc1 [Pifthrin-α]
conversion from fibroblast to osteoblast, Alizarin Red S staining and absorbance [1]: do not induce conversion from fibroblast to osteoblast

IGF-1: Human insulin-like growth factor-1
mRNA expression of BSP, ALK5 i II and IGF-1 compared to ALK5 i II ([2]; IGF-1 100 ng/ml added with ALK5 i II 4 μM): further significantly increased

O=C(NOC[C@H](O)CO)c1ccc(F)c(F)c1Nc1ccc(I)cc1F [PD0325901]
conversion of fibroblast to brown adipocytes, AdipoQ mRNA [3]: converted fibroblast to brown adipocytes expressing mRNA of AdipoQ gene | conversion from fibroblast to osteoblast, Alizarin Red S staining and absorbance [1]: do not induce conversion from fibroblast to osteoblast

C=C1/C(=C\C=C2/CCC[C@]3(C)[C@@H]([C@H](C)CCCC(C)(C)O)CC[C@@H]23)C[C@@H](O)C[C@@H]1O [VD3, 1α,25-dihydroxy Vitamin D3]
mRNA expression of OC, ALK5 i II and VD3 compared to ALK5 i II ([2]; VD3 5 nM added with ALK5 i II 4 μM): significantly increased

Cc1[nH]c2ccc(O)cc2c1CCN [2-Me-5HT]
conversion from fibroblast to osteoblast, Alizarin Red S staining and absorbance [1]: do not induce conversion from fibroblast to osteoblast

Cc1c[nH]c(-c2cnc(NCCNc3ccc(C#N)cn3)nc2-c2ccc(Cl)cc2Cl)n1 [CHIR]
conversion from fibroblast to osteoblast, Alizarin Red S staining and absorbance [1]: do not induce conversion from fibroblast to osteoblast

NC(=O)c1ccc(-c2nc(-c3ccc4c(c3)OCO4)c(-c3ccccn3)[nH]2)cc1 [SB431542, 4-[4-(1,3-Benzodioxol-5-yl)-5-(pyridin-2-yl)-1H-imidazol-2-yl]benzamide]
conversion of fibroblast to brown adipocytes, CIDEA mRNA [4]: converted fibroblast to brown adipocytes expressing mRNA of CIDEA gene | conversion of human fibroblast to osteoblast, Alizarin Red S staining (staining figure) [5]: converted to osteoblast having calcified is bone matrix production ability | conversion of fibroblast to brown adipocyte, UCP1 protein [6]: converted fibroblast to brown adipocyte expressing UCP1 protein | staining with anti-UCP1 antibody [6]: many cells were stained with anti-UCP1 antibody | lipid droplets stained with Bodipy, inhibitor alone [7]: only a few cells contained lipid droplets stained with Bodipy | lipid droplets stained with Bodipy / conversion to white adipocyte, inhibitor and Rosiglitazone [7]: many cells were stained | conversion of fibroblast to brown adipocyte, Oil Red O staining [8]: converted fibroblast to brown adipocyte | conversion of fibroblast to brown adipocytes, BODIPY staining and fluorescence intensity [9]: converted fibroblast to brown adipocytes having lipid droplets stained with BODIPY | fat accumulation (BODIPY) / conversion to white adipocyte, co-addition of Rosiglitazone [10]: more strongly induced fat accumulation than by the addition of Rosiglitazone alone | efficiency in converting fibroblast to osteoblast (summary statement) [11]: highly efficient in converting fibroblast to osteoblast | conversion of fibroblast to brown adipocyte, UCP1 mRNA [12]: converted fibroblast to brown adipocyte strongly expressing UCP1 gene | conversion of human fibroblast to osteoblast, Alizarin Red S staining (absorbance OD 550 nm) [13]: converted to osteoblast having calcified bone matrix production ability | conversion of human fibroblast to white adipocyte (mRNA markers) [14]: converted human fibroblast to white adipocyte | conversion of fibroblast to brown adipocytes, AdipoQ mRNA [3]: converted fibroblast to brown adipocytes expressing mRNA of AdipoQ gene | conversion of human fibroblast to osteoblast, Osteocalcin and Alkaline Phosphatase mRNA [15]: converted to osteoblast expressing osteocalcin and alkaline phosphatase gene | conversion from fibroblast to osteoblast, Alizarin Red S staining and absorbance [1]: induce conversion from fibroblast to osteoblast

Fc1ccc(Cl)cc1-c1nc(Nc2ccncc2)c2nccnc2n1 [SD208, 2-(5-Chloro-2-fluorophenyl)-4-[(4-pyridyl)amino]pteridine]
conversion of human fibroblast to osteoblast, Alizarin Red S / ALP staining and absorbance ([11]; calcification induction medium, compounds 1 or 4 μM, TGF-β 10 ng/ml, day 21, FIG. 35, 36): can strongly convert human fibroblast to osteoblast | efficiency in converting fibroblast to osteoblast (summary statement) [11]: highly efficient in converting fibroblast to osteoblast

Nc1nccc2c1ncn2[C@@H]1C=C(CO)C(O)[C@@H]1O (stereo partly shown) [DZnep]
conversion from fibroblast to osteoblast, Alizarin Red S staining and absorbance [1]: do not induce conversion from fibroblast to osteoblast

NC(=O)c1ccc(-c2nc(-c3ccc4c(c3)OCCO4)c(-c3ccccn3)[nH]2)cc1 [D4476, 4-[4-(2,3-dihydro-1,4-benzodioxin-6-yl)-5-(2-pyridinyl) 1H-imidazol-2-yl]-benzamide]
conversion of fibroblast to brown adipocytes, CIDEA mRNA [4]: converted fibroblast to brown adipocytes expressing mRNA of CIDEA gene | conversion of human fibroblast to osteoblast, Alizarin Red S staining (staining figure) [5]: converted to osteoblast having calcified is bone matrix production ability | conversion of fibroblast to brown adipocyte, UCP1 protein [6]: converted fibroblast to brown adipocyte expressing UCP1 protein | staining with anti-UCP1 antibody [6]: many cells were stained with anti-UCP1 antibody | lipid droplets stained with Bodipy, inhibitor alone [7]: only a few cells contained lipid droplets stained with Bodipy | lipid droplets stained with Bodipy / conversion to white adipocyte, inhibitor and Rosiglitazone [7]: many cells were stained | conversion of fibroblast to brown adipocyte, Oil Red O staining [8]: converted fibroblast to brown adipocyte | conversion of fibroblast to brown adipocytes, BODIPY staining and fluorescence intensity [9]: converted fibroblast to brown adipocytes having lipid droplets stained with BODIPY | fat accumulation (BODIPY) / conversion to white adipocyte, co-addition of Rosiglitazone [10]: more strongly induced fat accumulation than by the addition of Rosiglitazone alone | efficiency in converting fibroblast to osteoblast (summary statement) [11]: highly efficient in converting fibroblast to osteoblast | conversion of fibroblast to brown adipocyte, UCP1 mRNA [12]: converted fibroblast to brown adipocyte strongly expressing UCP1 gene | conversion of human fibroblast to osteoblast, Alizarin Red S staining (absorbance OD 550 nm) [13]: converted to osteoblast having calcified bone matrix production ability | conversion of human fibroblast to white adipocyte (mRNA markers) [14]: converted human fibroblast to white adipocyte | conversion of fibroblast to brown adipocytes, AdipoQ mRNA [3]: converted fibroblast to brown adipocytes expressing mRNA of AdipoQ gene | conversion of human fibroblast to osteoblast, Osteocalcin and Alkaline Phosphatase mRNA [15]: converted to osteoblast expressing osteocalcin and alkaline phosphatase gene | conversion from fibroblast to osteoblast, Alizarin Red S staining and absorbance [1]: induce conversion from fibroblast to osteoblast

Source: US11851681B2, “Cell preparation method” (KYOTO PREFECTURAL PUBLIC UNIVERSITY CORPORATION, priority 2015, dated 2023)
